Data published in the supplement of paper PMC10307832.

What was measured:
Assay in all cases: relative viability (nuclei count vs DMSO), 5 days (fraction); higher = more cells survive
[1] = compound: CC(C)C[C@@H](C(=O)N[C@H](C(=O)OC1CCCC1)c1ccccc1)[C@H](O)C(=O)NO [Tosedostat] + COc1cccc2cc(-c3nc([C@H]4CC[C@H](C(=O)O)CC4)n4ncnc(N)c34)[nH]c12 [OSI-027] (partner 0.5 µM)
In short: (§1)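 One day after seeding in 1536-well plates, lung cancer cell lines were dosed by pin tool. Dosing was either single-drug or a fixed anchor-drug dose plus five library-drug doses (not always all listed) in √10 steps. After 5 days, nuclei were stained in one fix-and-stain step and counted on 4× images, and relative viability is the nuclei count of treated wells over that of vehicle wells, given as the median of duplicate plates.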

[2] = compound: CC(C)C[C@@H](C(=O)N[C@H](C(=O)OC1CCCC1)c1ccccc1)[C@H](O)C(=O)NO [Tosedostat] + CS(=O)(=O)N1CCN(Cc2cc3nc(-c4cccc5[nH]ncc45)nc(N4CCOCC4)c3s2)CC1 [Pictilisib] (partner 1 µM)
In short: as §1

[3] = compound: CC1=NN=C(O1)C2=NN=C(C=C2)N3CCC(CC3)OC4=C(C=CC(=C4)F)Cl + CS(=O)(=O)CCNCc1ccc(-c2ccc3ncnc(Nc4ccc(OCc5cccc(F)c5)c(Cl)c4)c3c2)o1 [Lapatinib] (partner 2 µM)
In short: as §1

[4] = compound: CC1=NN=C(O1)C2=NN=C(C=C2)N3CCC(CC3)OC4=C(C=CC(=C4)F)Cl + Cc1nc(Nc2ncc(C(=O)Nc3c(C)cccc3Cl)s2)cc(N2CCN(CCO)CC2)n1 [Dasatinib] (partner 0.075 µM)
In short: as §1

Row | Cell Line | relative viability ([1]; first compound 0.02 µM) | relative viability ([1]; first compound 0.06325 µM) | relative viability ([1]; first compound 0.2 µM) | relative viability ([1]; first compound 0.6325 µM) | relative viability ([1]; first compound 2 µM) | relative viability ([2]; first compound 0.02 µM) | relative viability ([2]; first compound 0.06325 µM) | relative viability ([2]; first compound 0.2 µM) | relative viability ([2]; first compound 0.6325 µM) | relative viability ([2]; first compound 2 µM) | relative viability ([3]; first compound 0.253 µM) | relative viability ([3]; first compound 0.8 µM) | relative viability ([3]; first compound 2.53 µM) | relative viability ([3]; first compound 8 µM) | relative viability ([4]; first compound 0.253 µM) | relative viability ([4]; first compound 0.8 µM) | relative viability ([4]; first compound 2.53 µM) | relative viability ([4]; first compound 8 µM)
1 | NCI-H1792 | 0.71 | 0.68 | 0.752 | 0.729 | 1.08 | 0.282 | 0.279 | 0.272 | 0.232 | 0.276 | 0.417 | 0.436 | 0.404 | 0.502 | 0.578 | 0.714 | 0.78 | 0.707
2 | NCI-H1734 | 0.593 | 0.669 | 0.64 | 0.571 | 0.564 | 0.471 | 0.468 | 0.444 | 0.459 | 0.433 | 0.954 | 0.683 | 0.908 | 0.882 | 0.496 | 0.417 | 0.477 | 0.401
3 | NCI-H650 | 0.611 | 0.5 | 0.454 | 0.455 | 0.364 | 0.933 | 0.736 | 0.709 | 0.696 | 0.578 | 0.999 | 0.833 | 0.839 | 0.851 | 0.496 | 0.436 | 0.419 | 0.445
4 | LCLC-97TM1 | 0.603 | 0.451 | 0.442 | 0.418 | 0.497 | 0.177 | – | – | 0.147 | 0.186 | 0.827 | – | 0.553 | 0.687 | 0.395 | 0.324 | 0.345 | 0.347
5 | SK-LU-1 | 0.43 | 0.348 | 0.337 | 0.297 | 0.329 | 0.688 | 0.728 | 0.505 | 0.604 | 0.485 | 0.703 | 0.749 | 0.772 | 0.807 | 0.166 | – | 0.0949 | 0.119
6 | NCI-H1563 | 0.813 | 0.797 | 0.788 | 0.891 | 0.836 | 0.636 | 0.657 | 0.708 | 0.712 | 0.616 | 0.804 | 0.992 | 0.88 | 0.82 | 0.465 | 0.48 | 0.55 | 0.452
7 | HOP-62 | 0.836 | 0.813 | 0.885 | 0.671 | 0.664 | 0.94 | 0.676 | 0.717 | 0.487 | 0.867 | 0.799 | – | 0.523 | 0.684 | 0.571 | 0.633 | 0.606 | 0.6
8 | NCI-H23 | 0.702 | 0.599 | 0.683 | 0.494 | 0.372 | 0.523 | 0.466 | 0.48 | 0.451 | 0.324 | 1.03 | – | 0.955 | 0.876 | 0.622 | – | 0.79 | 0.71
